Assay results as given in US4169950A, “Amino-hydroxy-alkyl sulfonic acid zwitterions” (priority 1977, dated 1979).

What was measured:
[1] = pKa (pH of midpoint of buffering range) of the product at 20° C.
Excerpt: (§2) In this application, pKa is used to represent the pH of the midpoint of the buffering range of the particular composition.

BALB/C 3T3 = assay: Effect of buffers on growth of 3T3 cells; type: cell-based, mouse; conditions: for Minimum Cell Population: Control at 70 hrs, HEPES at 50 hrs, Ex 3 at 22 hrs
Excerpt: (§1) The control was not so modified. […] The medium was changed every other day.

[2] = test system: NIL B, SV-NIL and BALB/C 3T3 cells; assay: Effectiveness as cell and tissue culture buffers, overall comparison on the cell lines tested; conditions: for effectiveness as buffer in promotion of cell growth, compared with HEPES / effectiveness as buffer in promotion of cell growth, compared with NaHCO3:CO2 system (control): selected media, cells tested
Experimental: The cell lines used in the tests were NIL B, a hamster fibroblast line; SV-NIL, an SV40-virus transformed line derived from NIL B; and BALB/C 3T3, a mouse embryo tissue. The cells were seeded into T-flasks (screw-capped polystyrene flasks) with a 25 cm^2 area. On the control flask (CO2 atmosphere), the cap was kept loose to allow gas circulation while the caps on the experimental culture flasks were screwed on tightly. The medium used in these tests was Eagle's MEM 4X (see pages 108-112 of Paul, Cell and Tissue Culture, 5th Edition, 1975), in an Earle's salt solution (page 95 of same text) modified to contain 2.2 g/l of bicarbonate for the experimental buffers. The control was not so modified. The control flask was incubated at 37° C. in an atmosphere of 5% CO2 in air whereas the other flasks were incubated at 37° C. in an air atmosphere. The medium was changed every other day.
At appointed times, triplicate flasks were harvested using trypsin, and the approximate cell population was determined using a Coulter electronic particle counter.

SV-NIL cells = assay: Effect of buffers on growth of SV-NIL cells; type: cell-based, hamster; conditions: for Minimum Cell Population: Control at 16 hrs, HEPES at 24 hrs, Ex 3 at 26 hrs
Excerpt: as §1

NIL B cells = assay: Effect of buffers on growth of NIL B cells; type: cell-based, hamster; conditions: for Minimum Cell Population: Control at 16 hrs, HEPES at 24 hrs, Ex 3 at 24 hrs
Excerpt: as §1

[3] = Solubility of double zwitterion on acidification; type: physicochemical; conditions: aqueous reaction solution acidified to pH 1.5 with HCl

Excerpt for physchem: as §2

Structure (SMILES)	pKa [1]	Time of minimum cell population (BALB/C 3T3)	Number of Cells per cm^2 (BALB/C 3T3; 0 hrs)	Number of Cells per cm^2 (BALB/C 3T3; 12 hrs)	Number of Cells per cm^2 (BALB/C 3T3; 24 hrs)	Number of Cells per cm^2 (BALB/C 3T3; 36 hrs)	Number of Cells per cm^2 (BALB/C 3T3; 48 hrs)	Number of Cells per cm^2 (BALB/C 3T3; 60 hrs)	Number of Cells per cm^2 (BALB/C 3T3; 72 hrs)	Number of Cells per cm^2 (BALB/C 3T3; 84 hrs)	Number of Cells per cm^2 (BALB/C 3T3; 88 hrs)	Minimum Cell Population (BALB/C 3T3)	effectiveness as buffer in promotion of cell growth, compared with HEPES [2]	effectiveness as buffer in promotion of cell growth, compared with NaHCO3:CO2 system (control) [2]	Time of minimum cell population (SV-NIL cells)	Number of Cells per cm^2 (SV-NIL cells; 0 hrs)	Number of Cells per cm^2 (SV-NIL cells; 12 hrs)	Number of Cells per cm^2 (SV-NIL cells; 24 hrs)	Number of Cells per cm^2 (SV-NIL cells; 36 hrs)	Number of Cells per cm^2 (SV-NIL cells; 48 hrs)	further results
O=S(=O)(O)CC(O)CN(CCO)CCO (stereo not drawn) [Example 1, 3-[N-(bis-hydroxyethyl)-amino]-2-hydroxypropyl sulfonic acid]	7.6																				
O=S(=O)(O)CC(O)CNC(CO)(CO)CO (stereo not drawn) [Example 2, 3-[N-(tris-hydroxymethyl)methylamino]-2-hydroxypropane sulfonic acid]																					pKa (physchem): 7.7
O=S(=O)(O)CC(O)CN1CCN(CCO)CC1 (stereo not drawn) [Example 3, N-hydroxyethyl piperazine-N'-2 hydroxypropyl sulfonic acid]		22 h	1000 cells per cm^2	520 cells per cm^2	280 cells per cm^2	310 cells per cm^2	330 cells per cm^2	360 cells per cm^2	450 cells per cm^2	805 cells per cm^2	1015 cells per cm^2	about 280 cells per cm^2	as good as, if not better than, the control and the known buffer HEPES	as good as, if not better than, the control	26 h	1000 cells per cm^2	470 cells per cm^2	220 cells per cm^2	290 cells per cm^2	440 cells per cm^2	cell growth utilizing the product as a buffer ([2]; three cell types, average values): general improvement in cell growth; Number of Cells per cm^2 (SV-NIL cells; 60 hrs): 680 cells per cm^2; Number of Cells per cm^2 (SV-NIL cells; 72 hrs): 1000 cells per cm^2; Number of Cells per cm^2 (SV-NIL cells; 84 hrs): 1120 cells per cm^2; Number of Cells per cm^2 (SV-NIL cells; 90 hrs): 1200 cells per cm^2; Minimum Cell Population (SV-NIL cells): about 200 cells per cm^2; Time of minimum cell population (NIL B cells): 24 h; Number of Cells per cm^2 (NIL B cells; 0 hrs): 1000 cells per cm^2; Number of Cells per cm^2 (NIL B cells; 90-92 hrs): 9400 cells per cm^2; Number of Cells per cm^2 (NIL B cells; 12 hrs): 740 cells per cm^2; Number of Cells per cm^2 (NIL B cells; 24 hrs): 550 cells per cm^2; Number of Cells per cm^2 (NIL B cells; 36 hrs): 900 cells per cm^2; Number of Cells per cm^2 (NIL B cells; 48 hrs): 1100 cells per cm^2; Number of Cells per cm^2 (NIL B cells; 60 hrs): 2600 cells per cm^2; Number of Cells per cm^2 (NIL B cells; 72 hrs): 4300 cells per cm^2; Number of Cells per cm^2 (NIL B cells; 84 hrs): 6600 cells per cm^2; Minimum Cell Population (NIL B cells): about 550 cells per cm^2
O=S(=O)(O)CC(O)CN1CCN(CC(O)CS(=O)(=O)O)CC1 (stereo not drawn) [Example 4, Piperazine-N,N'-2-hydroxypropyl sulfonic acid (dihydrate)]	7.85																				solubility [3]: very insoluble
O=S(=O)(O)CC(O)CN1CCOCC1 (stereo not drawn) [Example 6, 3-(N-morpholino)-2-hydroxypropyl sulfonic acid]													about as good as HEPES	not as good as the NaHCO3 :CO2 system							
O=S(=O)(O)CCN1CCN(CCO)CC1 [HEPES, 4-(2-hydroxyethyl)-1-piperazine-ethanesulfonic acids, reference compound]		50 h	1000 cells per cm^2	640 cells per cm^2	400 cells per cm^2	300 cells per cm^2	230 cells per cm^2	280 cells per cm^2	380 cells per cm^2	760 cells per cm^2	1010 cells per cm^2	about 220 cells per cm^2			24 h	1000 cells per cm^2	440 cells per cm^2	200 cells per cm^2	230 cells per cm^2	260 cells per cm^2	Number of Cells per cm^2 (SV-NIL cells; 60 hrs): 380 cells per cm^2; Number of Cells per cm^2 (SV-NIL cells; 72 hrs): 580 cells per cm^2; Number of Cells per cm^2 (SV-NIL cells; 84 hrs): 940 cells per cm^2; Number of Cells per cm^2 (SV-NIL cells; 90 hrs): 1040 cells per cm^2; Minimum Cell Population (SV-NIL cells): about 200 cells per cm^2; Time of minimum cell population (NIL B cells): 24 h; Number of Cells per cm^2 (NIL B cells; 0 hrs): 1000 cells per cm^2; Number of Cells per cm^2 (NIL B cells; 90-92 hrs): 6700 cells per cm^2; Number of Cells per cm^2 (NIL B cells; 12 hrs): 680 cells per cm^2; Number of Cells per cm^2 (NIL B cells; 24 hrs): 460 cells per cm^2; Number of Cells per cm^2 (NIL B cells; 36 hrs): 700 cells per cm^2; Number of Cells per cm^2 (NIL B cells; 48 hrs): 1010 cells per cm^2; Number of Cells per cm^2 (NIL B cells; 60 hrs): 1160 cells per cm^2; Number of Cells per cm^2 (NIL B cells; 72 hrs): 3000 cells per cm^2; Number of Cells per cm^2 (NIL B cells; 84 hrs): 4800 cells per cm^2; Minimum Cell Population (NIL B cells): about 460 cells per cm^2
